Results taken from patent publication US20240263146A1, “HUMAN NSCLC CELL LINES AND USES THEREOF” (SHANGHAI LIDE BIOTECH CO., LTD., priority 2020, published 2024).

Assays:
Test in all cases: cells
[1] = test system: LD1-0006-215676 (EGFR L858R/T790M) cell line; details: Homo sapiens, 144 h
Procedure: (§1) The cell lines of the present disclosure (i.e., LD1-0025-200636; LD1-0025-200694; LD1-0006-215676; and LD1-0025-200717) were seeded at 2×10^2 cells/well to 96 well round bottom ultra low attachment plate. The drugs were added into the cell lines and the cells were cultured in 37° C. and 5% CO2 for 6 days. The ATP amount was measured using CellTiter-Glo. The Inhibition rate corresponding to the concentration of the drugs was calculated. The equation for calculating the inhibition rate is as follows: […]
(§2) Inhibition curve was graphed by XLfit(IDBS) and IC50 was calculated.

[2] = test system: LD1-0025-200636 (EGFR WT) cell line; details: Homo sapiens, 144 h
Procedure: as §1, §2

[3] = test system: LD1-0025-200694 (EGFR L858R) cell line; details: Homo sapiens, 144 h
Procedure: as §1, §2

[4] = test system: LD1-0025-200717 (EGFR 19del, T790M & C797S mutant) cell line; details: Homo sapiens, LD1-0025-200717, 144 h
Procedure: as §1, §2

**Q.** Which IC50 [1] does the source give for `C=CC(=O)Nc1cc(Nc2nccc(-c3cn(C)c4ccccc34)n2)c(OC)cc1N(C)CCN(C)C` [AZD9291, Osimertinib] here?
**A.** The IC50 was 0.03 µM.

**Q.** What about the IC50 [2] of the same molecule?
**A.** The IC50 was 2.52 µM.

**Q.** What about the IC50 [3] of the same molecule?
**A.** The IC50 was 2.67 µM.

**Q.** What about the IC50 [4] of the same molecule?
**A.** The IC50 was 2.01 µM.
